Patent US20210403606A1, “METHOD FOR SEPARATING AND PURIFYING POLYSACCHARIDES FROM GANODERMA SPORES” (ZHONGKE HEALTH INDUSTRY GROUP JIANGSU PHARMACEUTICAL CO., …, priority 2018, published 2021)

Columns and labels:
[1] = system: transplanted tumor Heps; assay: Inhibitory effects on the transplanted tumor Heps in mice by tail vein injection; format: in vivo, ICR mice
Method: (§1) 1.2. Animals: ICR mice, 18-22 g, half males and half females, provided by the Animal Laboratory of China Pharmaceutical University. The animals were fed with pellet feed in an air-conditioned room at a temperature of 18-24° C., and a relative humidity of 70%.
3.1. Inhibitory effects of No. 1, No. 2, and No. 3 on the transplanted tumor Heps in mice by tail vein injection
3.1.1. Route of administration: No. 1, No. 2, and No. 3 are administrated by tail vein injection (iv).
(§2) 3.1.2. Schedule of administration: the mice are inoculated with solid-type Heps tumors according to protocols of transplanted tumor research, and 24 hours after inoculation, the medicines are intravenously administered once every other day for a total of 4 doses. On the day after stopping administration, the mice are sacrificed and dissected.
3.1.3. Dose setting: There are 6 groups in total, namely:
3.1.4. Volume of administration: 0.4 ml/20 g
(§3) 3.1.5. Test method: 60 mice of the foregoing specification were inoculated with solid-type Heps tumors according to protocols of the transplanted tumor research. The mice were weighed 24 hours after inoculation, and randomly divided into 6 groups, each with 10 mice, having half males and half females. The blank control group and the CTX group were respectively used as a negative control group and a positive control group. 24 hours after inoculation, the medicines were intravenously administered once every other day for a total of 4 doses. The mice were weighed on the day after stopping administration. The tumor-bearing mice were sacrificed, and the tumor masses were separated and weighed, and the obtained data was statistically processed (t-test).

[2] = system: transplanted tumor S180; assay: Inhibitory effects on the transplanted tumor S180 in mice by tail vein injection; format: in vivo, ICR mice
Method: as §1
3.2. Inhibitory effects of No. 1, No. 2, and No. 3 on the transplanted tumor S180 in mice by tail vein injection
3.2.1. Route of administration: No. 1, No. 2, and No. 3 are administrated by tail vein injection (iv).
as §2, with “3.2.2.” for “3.1.2.”, “5180” for “Heps”
3.2.3. Dose setting: There are 6 groups in total, namely:
3.2.4. Volume of administration: 0.4 ml/20 g
as §3, with “3.2.5.” for “3.1.5.”, “5180” for “Heps”

`O=P1(N(CCCl)CCCl)NCCCO1` (centres unmarked) [CTX, Cyclophosphamide] was tested, and the Tumor inhibition rate ([1]; Heps, 30 mg/kg once every other day, 4 doses) was 74.20%, the Tumor weight ([1]; Heps, 30 mg/kg once every other day, 4 doses, X ± SD, n = 10) was 0.42 ± 0.19 g and the “Weight After administration” value ([1]; Heps-bearing mice, 30 mg/kg once every other day, 4 doses, X ± SD, n = 10) was 23.2 ± 2.74. For the same compound, the “Weight Before administration” value ([1]; Heps-bearing mice, 30 mg/kg, baseline body weight, X ± SD, n = 10) was 20.0 ± 1.36, the Tumor inhibition rate ([2]; S180, 30 mg/kg once every other day, 4 doses) was 65.71% and the Tumor weight ([2]; S180, 30 mg/kg once every other day, 4 doses, X ± SD, n = 10) was 0.55 ± 0.18 g. The “Weight After administration” value ([2]; S180-bearing mice, 30 mg/kg once every other day, 4 doses, X ± SD, n = 10) was 23.2 ± 2.74 and the “Weight Before administration” value ([2]; S180-bearing mice, 30 mg/kg, baseline body weight, X ± SD, n = 10) was 20.1 ± 1.28.
